≈ marks a conversion by molar mass, not a printed value.
Key:
[1] = system: C. albicans 1208E; assay: in vitro antifungal MIC, two-fold serial dilution; type: cell-based; details: Candida albicans, 24 to 48 hours at 37° C
Description: (§1) The in vitro evaluation of the anti-fungal activity of compounds of the invention was performed on liquid or solid medium by the anti-fungal two-fold serial dilution technique of determining the minimum inhibitory concentration (MIC) of anti-fungal agent that inhibited development of growth after 24 to 48 hours of incubation at 37° C. In practice, a series of agar plates or broth microdilution panels containing two-fold dilutions of anti-fungal agent tested were inoculated with a standard culture of a clinically relevant pathogen, for example, candida albicans. The agar plates or broth microdulution panels were then examined for the presence or absence of growth of the fungus and the appropriate MIC values were noted. Compounds of formula (I) have been tested for anti fungal activity in a standard in vitro screen and the minimum inhibiting concentration (MIC; μg/ml) determined for each compound against a variety of clinically relevant pathogens.

[2] = system: C. albicans 2005E; assay: in vitro antifungal MIC, two-fold serial dilution; type: cell-based; details: Candida albicans, 24 to 48 hours at 37° C
Description: as §1

[3] = system: C. albicans 2402E; assay: in vitro antifungal MIC, two-fold serial dilution; type: cell-based; details: Candida albicans, 24 to 48 hours at 37° C
Description: as §1

[4] = system: C. albicans 4711; assay: in vitro antifungal MIC, two-fold serial dilution; type: cell-based; details: Candida albicans, 24 to 48 hours at 37° C
Description: as §1

[5] = system: C. glabrata 2375E; assay: in vitro antifungal MIC, two-fold serial dilution; type: cell-based; details: Nakaseomyces glabratus, 24 to 48 hours at 37° C
Description: as §1

[6] = system: C. glabrata 2376E; assay: in vitro antifungal MIC, two-fold serial dilution; type: cell-based; details: Nakaseomyces glabratus, 24 to 48 hours at 37° C
Description: as §1

[7] = system: C. neoformans 2867E; assay: in vitro antifungal MIC, two-fold serial dilution; type: cell-based; details: Cryptococcus neoformans, 24 to 48 hours at 37° C
Description: as §1

[8] = system: C. tropicalis 2808E; assay: in vitro antifungal MIC, two-fold serial dilution; type: cell-based; details: Candida tropicalis, 24 to 48 hours at 37° C
Description: as §1

[9] = system: C. psuedotropicalis 371E; assay: in vitro antifungal MIC, two-fold serial dilution; type: cell-based, Candida pseudotropicalis; details: Kluyveromyces marxianus, 24 to 48 hours at 37° C
Description: as §1

[10] = system: C. albicans 4711E; assay: in vivo protection of mice infected with C. albicans; design: species or system Candida albicans; male mice; details: 50 mg/kg sc
Description: The in vivo evaluation of compounds of formula (I) can be carried out at a series of dose levels by administration (e.g. subcutaneously, orally, intraperitoneally or intravenously) to mice or rats inoculated with a strain of Candida albicans. Untreated animals die within 3 to 9 days and the dose level at which the test compound provides 50% protection against the lethal effect of the infection is noted.
(§2) The compounds of the invention are essentially non-toxic at therapeutically useful levels.

[11] = adverse effects in treated mice; type: in vivo, male mice; details: 50 mg/kg sc
Description: as §2

[12] = system: fungal organisms; details: cited from earlier work; for antifungal activity (reported): reported in the literature; for antifungal activity and spectrum of action: when tested against a battery of fungal organisms

MIC [1] | MIC [2] | MIC [3] | MIC [4] | MIC [5] | MIC [6] | MIC [7] | MIC [8] | MIC [9] | SMILES | protection of male mice infected with C. albicans 4711E [10] | adverse effects in the treated mice [11] | antifungal activity (reported) [12] | antifungal activity and spectrum of action [12]
1 mg/L (≈ 1.91 µM) | 0.25 mg/L (≈ 0.478 µM) | 1 mg/L (≈ 1.91 µM) | 1 mg/L (≈ 1.91 µM) | 31 mg/L (≈ 59.3 µM) | 31 mg/L (≈ 59.3 µM) | 0.05 mg/L (≈ 0.0957 µM) | 2 mg/L (≈ 3.83 µM) | 1 mg/L (≈ 1.91 µM) | COC1C(C)OC(OCC23CC4C(C)CCC4C4(C=O)CC2C=C(C(C)C)C43C(=O)O)C(O)C1SC [Example 11, [1R-(1α, 3aβ, 4β, 4aβ, 7β, 7aα, 8aβ)] 8a-[(3,6-Dideoxy-4-O-methyl-3-methylthio-β-D-altropyranosyloxy)methyl]-4-formyl-4,4a,5,6,7,7a,8,8a-octahydro-7-methyl-3-(1-methylethyl)-1,4-methano-s-indacene-3a(1H)-carboxylic acid] | – | – | – | –
0.6 mg/L (≈ 0.97 µM) | ≤ 0.001 mg/L | 0.03 mg/L (≈ 0.0485 µM) | – | 500 mg/L (≈ 808 µM) | 500 mg/L (≈ 808 µM) | 0.25 mg/L (≈ 0.404 µM) | 0.06 mg/L (≈ 0.097 µM) | 0.004 mg/L (≈ 0.00646 µM) | CCCCCCCC(=O)OC1C(O)C(OCC23CC4C(C)CCC4C4(C=O)CC2C=C(C(C)C)C43C(=O)O)OC(C)C1OC [Example 24, [1R-(1α, 3aβ, 4β, 4aβ, 7β, 7aα, 8aβ,)] 8a-[(6-Deoxy-4-O-methyl-3'-O-octanoyl-β-D-altropyranosyloxy)methyl]-4-formyl-4,4a,5,6,7,7a,8,8a-octahydro-7-methyl-3-(1-methylethyl)-1,4-methano-s-indacene-3a(1H)-carboxylic acid] | – | – | – | –
0.06 mg/L (≈ 0.13 µM) | 0.004 mg/L (≈ 0.00868 µM) | 0.06 mg/L (≈ 0.13 µM) | – | 8 mg/L (≈ 17.4 µM) | 8 mg/L (≈ 17.4 µM) | 62 mg/L (≈ 135 µM) | 0.25 mg/L (≈ 0.543 µM) | 0.008 mg/L (≈ 0.0174 µM) | COC1CCC(OCC23CC4C(C)CCC4C4(C=O)CC2C=C(C(C)C)C43C(=O)O)OC1C [Example 39, [1R-(1α, 3aβ, 4aβ, 7β, 7aα, 8aβ)] 8a-[(2,3,6-Trideoxy-4-O-methyl-β-D-allopyranosyloxy)methyl]-4-formyl-4,4a,5,6,7,7a,8,8a-octahydro-7-methyl-3-(1-methylethyl)-1,4-methano-s-indacene-3a(1H)-carboxylic acid] | – | – | – | –
4 mg/L (≈ 6.94 µM) | 0.25 mg/L (≈ 0.433 µM) | 2 mg/L (≈ 3.47 µM) | – | > 125 mg/L | > 125 mg/L | 31 mg/L (≈ 53.7 µM) | 1 mg/L (≈ 1.73 µM) | 0.25 mg/L (≈ 0.433 µM) | CCCCCCOC1C(O)C(OCC23CC4C(C)CCC4C4(C=O)CC2C=C(C(C)C)C43C(=O)O)OC(C)C1OC [Example 3, [1R-(1α, 3aβ, 4β4aβ, 7β, 7aα, 8aβ)] 8a-[(6-Deoxy-3-O-hexyl-4-O-methyl-β-D-altropyranosyloxy)methyl]-4-formyl-4,4a,5,6,7,7a,8,8a-octahydro-7-methyl-3-(1-methylethyl)-1,4-methano-s-indacene-3a(1H)-carboxylic acid] | – | – | – | –
1 mg/L (≈ 1.93 µM) | 0.12 mg/L (≈ 0.232 µM) | 1 mg/L (≈ 1.93 µM) | 0.5 mg/L (≈ 0.966 µM) | 62 mg/L (≈ 120 µM) | 62 mg/L (≈ 120 µM) | 4 mg/L (≈ 7.73 µM) | – | – | COC1C(C)OC(OCC23CC4C(C)CCC4C4(C=O)CC2C=C(C(C)C)C43C(=O)O)C(O)C1N=[N+]=[N-] [Example 10, [1R-(1α, 3aβ, 4β, 4aβ, 7β, 7aα, 8aβ)] 8a-[(3-Azido-3,6-dideoxy-4-O-methylβ-D-altropyranosyloxy)methyl]-4-formyl-4,4a,5,6,7,7a,8,8a-octahydro-7-methyl-3-(1-methylethyl)-1,4-methano-s-indacene-3a(1H)-carboxylic acid] | active in protecting male mice | no adverse effects were observed | – | –
0.015 mg/L (≈ 0.0289 µM) | ≤ 0.001 mg/L | 0.008 mg/L (≈ 0.0154 µM) | 0.004 mg/L (≈ 0.00771 µM) | 8 mg/L (≈ 15.4 µM) | 8 mg/L (≈ 15.4 µM) | 125 mg/L (≈ 241 µM) | 0.003 mg/L (≈ 0.00578 µM) | 0.004 mg/L (≈ 0.00771 µM) | CCCOC1CC(OCC23CC4C(C)CCC4C4(C=O)CC2C=C(C(C)C)C43C(=O)O)OC(C)C1OC [Example 7, [1R-(1α, 3aβ, 4β, 4aβ, 7β, 7aα, 8aβ)] 8a-[(2,6-Dideoxy-4-O-3-O-propyl-β-D-alopyranosyloxy)methyl]-4-formyl-4,4a,5,6,7,7a,8,8a-octahydro-7-methyl-3-(1-methylethyl)-1,4-methano-s-indacene-3a(1H)-carboxylic acid] | active in protecting male mice | no adverse effects were observed | – | –
≤ 0.001 mg/L | ≤ 0.001 mg/L | ≤ 0.001 mg/L | ≤ 0.001 mg/L | 1 mg/L (≈ 1.99 µM) | 1 mg/L (≈ 1.99 µM) | 31 mg/L (≈ 61.8 µM) | 0.004 mg/L (≈ 0.00797 µM) | ≤ 0.001 mg/L | COC1C(N=[N+]=[N-])CC(OCC23CC4C(C)CCC4C4(C=O)CC2C=C(C(C)C)C43C(=O)O)OC1C [Example 15, [1R-(1α, 3aβ, 4β, 4aβ, 7β, 7aα, 8aβ)] 8a-[(3-Azido-4-O-methyl-2,3,6-trideoxy-β-D-allopyranosyloxy)methyl]-4-formyl-4,4a,5,6,7,7a,8,8a-octahydro-7-methyl-3-(1-methylethyl)-1,4-methano-s-indacene-3a(1)-carboxylic acid] | – | – | – | –
0.25 mg/L (≈ 0.48 µM) | 0.03 mg/L (≈ 0.0576 µM) | 0.25 mg/L (≈ 0.48 µM) | 0.12 mg/L (≈ 0.23 µM) | 16 mg/L (≈ 30.7 µM) | 16 mg/L (≈ 30.7 µM) | 31 mg/L (≈ 59.5 µM) | 2 mg/L (≈ 3.84 µM) | 0.12 mg/L (≈ 0.23 µM) | COCOC1CC(OCC23CC4C(C)CCC4C4(C=O)CC2C=C(C(C)C)C43C(=O)O)OC(C)C1OC [Example 8, [1R-(1α, 3aβ, 4β, 4aβ, 7β, 7aα, 8aβ)] 8a-[(2,6-Dideoxy-4-O-methyl-3-O-methyloxymethyl-β-D-allopyranosyloxy)methyl]-4-formyl-4,4a,5,6,7,7a,8,8a-octahydro-7-methyl-3-(1-methylethyl)-1,4-methano-s-indacene-3a(1H)-carboxylic acid] | – | – | – | –
0.06 mg/L (≈ 0.107 µM) | ≤ 0.001 mg/L | 0.06 mg/L (≈ 0.107 µM) | 0.015 mg/L (≈ 0.0267 µM) | 31 mg/L (≈ 55.1 µM) | 31 mg/L (≈ 55.1 µM) | > 125 mg/L | 1 mg/L (≈ 1.78 µM) | ≤ 0.001 mg/L | CC(=O)OC1C(C)OC(OCC23CC4C(C)CCC4C4(C=O)CC2C=C(C(C)C)C43C(=O)O)CC1SC(C)=O [Example 42, [1R-(1α, 3aβ, 4β, 4aβ, 7β, 7aα, 8aβ)] 8a-(((2,3,6-Trideoxy-4-O-acetyl-3-acetylthio-b-D-allopyranosyl)oxy)methyl)-4-formyl-4,4a,5,6,7,7a,8,8a-octahydro-7-methyl-3-(1-methylethyl)-1,4-methano-s-indacene-3a(1H)-carboxylic acid] | – | – | – | –
≤ 0.001 mg/L | ≤ 0.001 mg/L | ≤ 0.001 mg/L | ≤ 0.001 mg/L | 1 mg/L (≈ 2.04 µM) | 1 mg/L (≈ 2.04 µM) | 31 mg/L (≈ 63.2 µM) | 0.004 mg/L (≈ 0.00815 µM) | ≤ 0.001 mg/L | COC1CC(OCC23CC4C(C)CCC4C4(C=O)CC2C=C(C(C)C)C43C(=O)O)OC(C)C1OC [Example 5, [1R-(1α, 3aβ, 4β, 4aβ, 7β, 7aα, 8aβ)] 8a-[(2,6-Dideoxy-3,4-O-dimethyl-β-D-allopyranosyloxy)methyl]-4-formyl-4,4a,5,6,7,7a,8,8a-octahydro-7-methyl-3-(1-methylethyl)-1,4-methano-s-indacene-3a(1H)-carboxylic acid] | – | – | – | –
8 mg/L (≈ 15.4 µM) | 2 mg/L (≈ 3.86 µM) | 8 mg/L (≈ 15.4 µM) | 4 mg/L (≈ 7.71 µM) | > 125 mg/L | > 125 mg/L | 125 mg/L (≈ 241 µM) | 16 mg/L (≈ 30.8 µM) | 2 mg/L (≈ 3.86 µM) | CCCOC1C(C)OC(OCC23CC4C(C)CCC4C4(C=O)CC2C=C(C(C)C)C43C(=O)O)CC1OC [Example 9, [1R-(1α, 3aβ, 4β, 4aβ, 7β, 7aα, 8aβ)] 8a-[(2,6-Dideoxy-3-O-methyl-4-O-propyl-β-D-allopyranosyloxy)methyl]-4-formyl-4,4a,5,6,7,7a,8,8a-octahydro-7-methyl-3-(1-methylethyl)-1,4-methano-s-indacene-3a(1H)-carboxylic acid] | – | – | – | –
– | – | – | – | – | – | – | – | – | COC1C(C)OC(OCC23CC4C(C)CCC4C4(C=O)CC2C=C(C(C)C)C43C(=O)O)C(O)C1O (stereo not drawn) [sordarin] | – | – | fungistatic activity | only moderately active and have limited spectra of action
– | – | – | – | – | – | – | – | – | CC=CC=CC(=O)OC1C(O)C(OCC23CC4C(C)CCC4C4(C=O)CC2C=C(C(C)C)C43C(=O)O)OC(C)C1OC (stereo not drawn) [zofimarin] | – | – | antifungal activity | only moderately active and have limited spectra of action
